According to PubChem BioAssay (NCI):
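Cells were grown in 96-well plates and exposed to each compound for 48 hours at five concentrations; endpoints were interpolated linearly between bracketing concentrations, or set to the highest concentration if not reached. GI50 marks 50% less growth. TGI denotes the concentration required for complete inhibition of growth.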

Experiments:
Test in all cases: NCI-60 cell line screen, 48 h
MOLT-4 leukemia = tested on: MOLT-4 leukemia
UO-31 renal = tested on: UO-31 renal
786-0 renal = tested on: 786-0 renal
MDA-MB-435 = tested on: MDA-MB-435
HT29 colon = tested on: HT29 colon
OVCAR-3 ovarian = tested on: OVCAR-3 ovarian
EKVX NSCLC = tested on: EKVX NSCLC
OVCAR-8 ovarian = tested on: OVCAR-8 ovarian
HOP-92 NSCLC = tested on: HOP-92 NSCLC
NCI-H522 lung = tested on: NCI-H522 lung
LOX IMVI melanoma = tested on: LOX IMVI melanoma
IGROV1 ovarian = tested on: IGROV1 ovarian
OVCAR-4 ovarian = tested on: OVCAR-4 ovarian
SN12C renal = tested on: SN12C renal
CCRF-CEM leukemia = tested on: CCRF-CEM leukemia
ACHN renal = tested on: ACHN renal
A549 NSCLC = tested on: A549 NSCLC
SR leukemia = tested on: SR leukemia
SK-OV-3 ovarian = tested on: SK-OV-3 ovarian
CAKI-1 renal = tested on: CAKI-1 renal
MALME-3M melanoma = tested on: MALME-3M melanoma
M14 melanoma = tested on: M14 melanoma
PC-3 prostate = tested on: PC-3 prostate
SW-620 colon = tested on: SW-620 colon
OVCAR-5 ovarian = tested on: OVCAR-5 ovarian
NCI-H460 lung = tested on: NCI-H460 lung
HL-60(TB) leukemia = tested on: HL-60(TB) leukemia
SK-MEL-28 melanoma = tested on: SK-MEL-28 melanoma
DU-145 prostate = tested on: DU-145 prostate
U251 CNS = tested on: U251 CNS
MDA-MB-231 breast = tested on: MDA-MB-231 breast
T-47D breast = tested on: T-47D breast
SF-268 CNS = tested on: SF-268 CNS
K-562 leukemia = tested on: K-562 leukemia
COLO 205 colon = tested on: COLO 205 colon
SF-295 CNS = tested on: SF-295 CNS
HS 578T breast = tested on: HS 578T breast
HCT-15 colon = tested on: HCT-15 colon
MDA-MB-468 breast = tested on: MDA-MB-468 breast
BT-549 breast = tested on: BT-549 breast
RPMI-8226 leukemia = tested on: RPMI-8226 leukemia
HCT-116 colon = tested on: HCT-116 colon
RXF 393 renal = tested on: RXF 393 renal
HOP-62 NSCLC = tested on: HOP-62 NSCLC
SK-MEL-5 melanoma = tested on: SK-MEL-5 melanoma
TK-10 renal = tested on: TK-10 renal
A498 renal = tested on: A498 renal
HCC-2998 colon = tested on: HCC-2998 colon
SF-539 CNS = tested on: SF-539 CNS
NCI-H226 lung = tested on: NCI-H226 lung
UACC-62 melanoma = tested on: UACC-62 melanoma
UACC-257 melanoma = tested on: UACC-257 melanoma
MCF7 breast = tested on: MCF7 breast
KM12 colon = tested on: KM12 colon
SK-MEL-2 melanoma = tested on: SK-MEL-2 melanoma
NCI-H23 lung = tested on: NCI-H23 lung
SNB-75 CNS = tested on: SNB-75 CNS
SNB-19 CNS = tested on: SNB-19 CNS
NCI/ADR-RES ovarian = tested on: NCI/ADR-RES ovarian

## O=C(/C=C/c1ccc(F)cc1)c1nc2ccccc2n1Cc1ccc(Br)cc1
MOLT-4 leukemia
  GI50: 2.41 µM
  TGI: 8.96 µM
UO-31 renal
  GI50: 1.42 µM
  TGI: 2.93 µM
786-0 renal
  GI50: 1.93 µM
  TGI: 3.89 µM
MDA-MB-435
  GI50: 1.85 µM
  TGI: 4.19 µM
HT29 colon
  GI50: 2.37 µM
  TGI: 4.93 µM
OVCAR-3 ovarian
  GI50: 1.76 µM
  TGI: 3.42 µM
EKVX NSCLC
  GI50: 2.62 µM
  TGI: 7.78 µM
OVCAR-8 ovarian
  GI50: 2.26 µM
  TGI: 5.51 µM
HOP-92 NSCLC
  GI50: 2.03 µM
  TGI: 12.1 µM
NCI-H522 lung
  GI50: 2.17 µM
  TGI: 4.68 µM
LOX IMVI melanoma
  GI50: 1.59 µM
  TGI: 3.06 µM
IGROV1 ovarian
  GI50: 2.31 µM
  TGI: 5.81 µM
OVCAR-4 ovarian
  GI50: 4.3 µM
  TGI: 51.4 µM
SN12C renal
  GI50: 3.02 µM
  TGI: 11.1 µM
CCRF-CEM leukemia
  GI50: 1.62 µM
  TGI: 8.35 µM
ACHN renal
  GI50: 2.8 µM
  TGI: 8.7 µM
A549 NSCLC
  GI50: 3.93 µM
  TGI: 35.3 µM
SR leukemia
  GI50: 2.79 µM
  TGI: > 100 µM
SK-OV-3 ovarian
  GI50: 10.5 µM
  TGI: > 100 µM
CAKI-1 renal
  GI50: 1.97 µM
  TGI: 5.74 µM
MALME-3M melanoma
  GI50: 1.83 µM
  TGI: 4.17 µM
M14 melanoma
  GI50: 2.33 µM
  TGI: 6.43 µM
PC-3 prostate
  GI50: 3.37 µM
  TGI: 13.7 µM
SW-620 colon
  GI50: 2.14 µM
  TGI: 4.44 µM
OVCAR-5 ovarian
  GI50: 1.94 µM
  TGI: 4.16 µM
NCI-H460 lung
  GI50: 1.89 µM
  TGI: 4 µM
HL-60(TB) leukemia
  GI50: 2.02 µM
  TGI: 6.3 µM
SK-MEL-28 melanoma
  GI50: 1.85 µM
  TGI: 3.77 µM
DU-145 prostate
  GI50: 3.47 µM
  TGI: 26 µM
U251 CNS
  GI50: 1.54 µM
  TGI: 2.99 µM
MDA-MB-231 breast
  GI50: 2.1 µM
  TGI: 4.66 µM
T-47D breast
  GI50: 2.68 µM
  TGI: 11.3 µM
SF-268 CNS
  GI50: 3.58 µM
  TGI: 67.8 µM
K-562 leukemia
  GI50: 2.84 µM
  TGI: > 100 µM
COLO 205 colon
  GI50: 2.35 µM
  TGI: 5.55 µM
SF-295 CNS
  GI50: 2.14 µM
  TGI: 5.29 µM
HS 578T breast
  GI50: 3.71 µM
  TGI: 43.3 µM
HCT-15 colon
  GI50: 1.67 µM
  TGI: 3.46 µM
MDA-MB-468 breast
  GI50: 1.9 µM
  TGI: 4.12 µM
BT-549 breast
  GI50: 2.24 µM
  TGI: 5.81 µM
RPMI-8226 leukemia
  GI50: 2.29 µM
  TGI: 6.87 µM
HCT-116 colon
  GI50: 1.96 µM
  TGI: 4.26 µM
RXF 393 renal
  GI50: 1.48 µM
  TGI: 2.89 µM
HOP-62 NSCLC
  GI50: 2.1 µM
  TGI: 4.87 µM
SK-MEL-5 melanoma
  GI50: 2.36 µM
  TGI: 6.69 µM
TK-10 renal
  GI50: 2.73 µM
  TGI: 8.11 µM
A498 renal
  GI50: 17.2 µM
  TGI: 32.1 µM
HCC-2998 colon
  GI50: 1.81 µM
  TGI: 3.36 µM
SF-539 CNS
  GI50: 1.91 µM
  TGI: 3.8 µM
NCI-H226 lung
  GI50: 2.96 µM
  TGI: 13.1 µM
UACC-62 melanoma
  GI50: 1.74 µM
  TGI: 4.3 µM
UACC-257 melanoma
  GI50: 3.2 µM
  TGI: 14.7 µM
MCF7 breast
  GI50: 1.72 µM
  TGI: 9.27 µM
KM12 colon
  GI50: 2.13 µM
  TGI: 5.22 µM
SK-MEL-2 melanoma
  GI50: 2.12 µM
  TGI: 4.74 µM
NCI-H23 lung
  GI50: 1.95 µM
  TGI: 4.37 µM
SNB-75 CNS
  GI50: 1.2 µM
  TGI: 12.2 µM

## CCc1ccc(SC2c3cc(OC)ccc3Oc3nc(N)c(C#N)c(N)c32)cc1 (configuration not stated)
MOLT-4 leukemia
  GI50: 1.28 µM
  TGI: 9.69 µM
UO-31 renal
  GI50: 0.575 µM
  TGI: 4.17 µM
786-0 renal
  GI50: 3.11 µM
  TGI: 24.9 µM
MDA-MB-435
  GI50: 2.05 µM
  TGI: 11.6 µM
HT29 colon
  GI50: 6.15 µM
  TGI: > 100 µM
OVCAR-3 ovarian
  GI50: 2.9 µM
  TGI: 12.6 µM
EKVX NSCLC
  GI50: 3.74 µM
  TGI: 17.3 µM
OVCAR-8 ovarian
  GI50: 5.85 µM
  TGI: 37.4 µM
HOP-92 NSCLC
  GI50: 3.66 µM
  TGI: 35.4 µM
NCI-H522 lung
  GI50: 1.69 µM
  TGI: 3.49 µM
LOX IMVI melanoma
  GI50: 0.23 µM
  TGI: 0.658 µM
IGROV1 ovarian
  GI50: 0.349 µM
  TGI: 1.51 µM
OVCAR-4 ovarian
  GI50: 4.23 µM
  TGI: 41.6 µM
SN12C renal
  GI50: 1.76 µM
  TGI: 15.8 µM
CCRF-CEM leukemia
  GI50: 0.225 µM
  TGI: 4.34 µM
ACHN renal
  GI50: 5.6 µM
  TGI: 25.3 µM
A549 NSCLC
  GI50: 3.99 µM
  TGI: 49.4 µM
SR leukemia
  GI50: 2.61 µM
  TGI: 22.8 µM
SK-OV-3 ovarian
  GI50: 6.62 µM
  TGI: 82.4 µM
CAKI-1 renal
  GI50: 1.89 µM
  TGI: 15 µM
MALME-3M melanoma
  GI50: 10.6 µM
  TGI: 22.7 µM
SNB-19 CNS
  GI50: 3.17 µM
  TGI: 16.6 µM
M14 melanoma
  GI50: 2.67 µM
  TGI: 12.4 µM
PC-3 prostate
  GI50: 1.52 µM
  TGI: 18.6 µM
SW-620 colon
  GI50: 3.15 µM
  TGI: 13.1 µM
OVCAR-5 ovarian
  GI50: 3.41 µM
  TGI: 14.4 µM
NCI-H460 lung
  GI50: 2.84 µM
  TGI: 15.3 µM
NCI/ADR-RES ovarian
  GI50: 3.24 µM
  TGI: 26.4 µM
HL-60(TB) leukemia
  GI50: 2.09 µM
  TGI: 6.11 µM
SK-MEL-28 melanoma
  GI50: 2.99 µM
  TGI: 12.5 µM
DU-145 prostate
  GI50: 11.7 µM
  TGI: 24.6 µM
U251 CNS
  GI50: 1.82 µM
  TGI: 15.3 µM
MDA-MB-231 breast
  GI50: 3.34 µM
  TGI: 17 µM
T-47D breast
  GI50: 3.36 µM
  TGI: 32.9 µM
SF-268 CNS
  GI50: 1.99 µM
  TGI: 20.5 µM
K-562 leukemia
  GI50: 3.51 µM
  TGI: 24.4 µM
COLO 205 colon
  GI50: 2.35 µM
  TGI: 6.19 µM
SF-295 CNS
  GI50: 3.28 µM
  TGI: 15.7 µM
HS 578T breast
  GI50: 2.35 µM
  TGI: 9.18 µM
HCT-15 colon
  GI50: 2.96 µM
  TGI: 19.3 µM
MDA-MB-468 breast
  GI50: 2.1 µM
  TGI: 6.56 µM
BT-549 breast
  GI50: 0.742 µM
  TGI: 3.25 µM
RPMI-8226 leukemia
  GI50: 3.02 µM
  TGI: 14.6 µM
HCT-116 colon
  GI50: 3.05 µM
  TGI: 13.9 µM
RXF 393 renal
  GI50: 1.76 µM
  TGI: 5.09 µM
HOP-62 NSCLC
  GI50: 3.77 µM
  TGI: > 100 µM
SK-MEL-5 melanoma
  GI50: 3.23 µM
  TGI: 13.7 µM
TK-10 renal
  GI50: 9.67 µM
  TGI: 32.2 µM
A498 renal
  GI50: 3.32 µM
  TGI: 10.8 µM
HCC-2998 colon
  GI50: 4.9 µM
  TGI: 17.1 µM
SF-539 CNS
  GI50: 1.59 µM
  TGI: 3.27 µM
NCI-H226 lung
  GI50: 2.26 µM
  TGI: 23.3 µM
UACC-62 melanoma
  GI50: 2.73 µM
  TGI: 11.5 µM
UACC-257 melanoma
  GI50: 9.06 µM
  TGI: 29.6 µM
MCF7 breast
  GI50: 3.04 µM
  TGI: 13.6 µM
KM12 colon
  GI50: 3.43 µM
  TGI: 16.1 µM
SK-MEL-2 melanoma
  GI50: 3.42 µM
  TGI: 13 µM
NCI-H23 lung
  GI50: 2.9 µM
  TGI: 14 µM
SNB-75 CNS
  GI50: 0.566 µM
  TGI: 4.02 µM
